Patent US10676468B2, “N-(3-heteroarylaryl)-4-arylarylcarboxamides and analogs as hedgehog pathway inhibitors and use thereof” (IMPACT Therapeutics, Inc., priority 2012, dated 2020)
Structures can show the parent of a compound that is named as a salt.

Tests used:
Assay type in all cases: cell-based, mouse
[1] = tested on: Hedgehog Signaling Pathway; assay: SHH-induced differentiation of C3H10T1/2 cells into osteoblastic cells, intracellular alkaline phosphatase activity; conditions: 10 nM SHH-N, 5 days, alkaline phosphatase activity (OD405), read-out: IC50 values of compounds that inhibit Hh pathway
Procedure, shortened: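 Hedgehog pathway inhibition was taken as loss of SHH-driven osteoblastic differentiation. Test compound (10 nM–10 μM) plus SHH-N (10 nM) was applied to C3H10T1/2 cells for 5 days, then lysate phosphatase turnover was measured as the 30-min OD405 change at 37 °C. IC50 was fitted from activity versus log dose.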

[2] = tested on: Hedgehog Signaling Pathway; assay: Gli-Luc reporter gene cell assay in C3H10T1/2/Gli-Luc cells stimulated with Shh; conditions: 30 nM Shh, luciferase activity (RLU), read-out: IC50 values of compounds that inhibit Hh pathway
Procedure, shortened: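 IC50 from nonlinear fit of luciferase RLU versus log compound concentration. Stably transfected C3H10T1/2/Gli-Luc cells received a 7-point compound series alongside Shh (30 nM in the added medium) for 24 h at 37 °C in DMEM/10% FBS, then were lysed for luciferase readout.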

[3] = tested on: Hedgehog Signaling Pathway; assay: SAG-induced differentiation of C3H10T1/2 cells into osteoblastic cells, intracellular alkaline phosphatase activity; conditions: 1 μM SAG, 5 days, alkaline phosphatase activity (OD405), read-out: IC50 values of compounds that inhibit Hh pathway
Procedure, shortened: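 Mouse C3H10T1/2 cells were induced with SAG and exposed to compound (10 μM to 1 nM) for 5 days at 37 °C. Cells were lysed in 0.2% Triton, and alkaline phosphatase activity was read as OD405 over 30 min at 37 °C in pH 9.8 substrate buffer. IC50 came from a non-linear fit of background-subtracted OD405 against log concentration.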

[4] = Mus musculus, C3H 10T1/2, 120 h

| IC50 [1, 4] [nM] | IC50 ([2]; Mus musculus, C3H 10T1/2, 24 h) [nM] | IC50 [3, 4] [nM] | IC50 ([1]; Dihydrochloride) [nM] | IC50 ([2]; 24 hours, Dihydrochloride) [nM] | IC50 ([3]; Dihydrochloride) [nM] | Compound |
| --- | --- | --- | --- | --- | --- | --- |
| 0.49 | 0.8 | 38 |  |  |  | CCN1[C@H](C)CN(c2ccc(C(=O)Nc3ccc(Cl)c(-c4nc5ccccc5[nH]4)c3)c(Cl)c2)C[C@@H]1C [Example 124, N-(3-(1H-benzo[d]imidazol-2-yl)-4-chlorophenyl)-2-chloro-4-((3S,5R)-4-ethyl-3,5-dimethylpiperazin-1-yl)benzamide] |
| 1.2 | 0.57 | 23 |  |  |  | CC(C)N1[C@H](C)CN(c2ccc(C(=O)Nc3ccc(Cl)c(-c4nc5ccccc5[nH]4)c3)c(Cl)c2)C[C@@H]1C [Example 125, N-(3-(1H-benzo[d]imidazol-2-yl)-4-chlorophenyl)-2-chloro-4-((3S,5R)-4-isopropyl-3,5-dimethylpiperazin-1-yl)benzamide] |
| 25 | 2.3 | 81 |  |  |  | C[C@H]1CN(c2ccc(C(=O)Nc3ccc(Cl)c(-c4nc5ccccc5[nH]4)c3)c(Cl)c2)CCN1C [Example 126, (S)—N-(3-(1H-benzo[d]imidazol-2-yl)-4-chlorophenyl)-2-chloro-4-(3,4-dimethylpiperazin-1-yl)benzamide] |
| 1.1 | 1.1 | 34 |  |  |  | C[C@@H]1CN(c2ccc(C(=O)Nc3cnc(Cl)c(-c4nc5ccccc5[nH]4)c3)c(Cl)c2)C[C@H](C)N1C [Example 127, N-(5-(1H-benzo[d]imidazol-2-yl)-6-chloropyridin-3-yl)-2-chloro-4-((3S,5R)-3,4,5-trimethylpiperazin-1-yl)benzamide] |
| 5.3 | 5.2 | 60 |  |  |  | C[C@@H]1CN(c2ccc(C(=O)Nc3cnc(Cl)c(-c4nc5ccccc5[nH]4)c3)c(Cl)c2)C[C@H](C)O1 [Example 128, N-(5-(1H-benzo[d]imidazol-2-yl)-6-chloropyridin-3-yl)-2-chloro-4-((2S,6R)-2,6-dimethylmorpholino)benzamide] |
| 7.5 | 4 | 82 |  |  |  | C[C@@H]1CN(c2ccc(C(=O)Nc3cnc(Cl)c(-c4nc5ccc(F)cc5[nH]4)c3)c(Cl)c2)C[C@H](C)N1C [Example 129, N-(5-(6-fluoro-1H-benzo[d]imidazol-2-yl)-6-chloropyridin-3-yl)-2-chloro-4-((3S,5R)-3,4,5-trimethylpiperazin-1-yl)benzamide] |
| 18 | 8.5 | 178 |  |  |  | C[C@@H]1CN(c2ccc(C(=O)Nc3cnc(Cl)c(-c4nc5ccc(Cl)cc5[nH]4)c3)c(Cl)c2)C[C@H](C)N1C [Example 130, N-(5-(6-chloro-1H-benzo[d]imidazol-2-yl)-6-chloropyridin-3-yl)-2-chloro-4-((3S,5R)-3,4,5-trimethylpiperazin-1-yl)benzamide] |
|  |  |  | 0.53 | 0.74 | 28 | C[C@@H]1CN(c2ccc(C(=O)Nc3ccc(Cl)c(-c4nc5ccccc5[nH]4)c3)c(Cl)c2)C[C@H](C)N1C [Example 132, N-(3-(1H-benzo[d]imidazol-2-yl)-4-chlorophenyl)-2-chloro-4-((3S,5R)-3,4,5-trimethylpiperazin-1-yl)benzamide Dihydrochloride] |
|  |  |  | 6.3 | 1.6 | 54 | C[C@@H]1CN(c2ccc(C(=O)Nc3ccc(Cl)c(-c4nc5ccccc5[nH]4)c3)cc2Cl)C[C@H](C)N1C [Example 133, N-(3-(1H-benzo[d]imidazol-2-yl)-4-chlorophenyl)-3-chloro-4-((3S,5R)-3,4,5-trimethylpiperazin-1-yl)benzamide Dihydrochloride] |
| 1.5 | 1.2 | 67 |  |  |  | Cc1csc(-c2cnc(-c3cc(NC(=O)c4ccc(N5C[C@@H](C)N(C)[C@@H](C)C5)cc4C)ccc3Cl)[nH]2)c1 [Example 135, N-(3-(5-(4-methylthiophen-2-yl)-1H-imidazol-2-yl)-4-chlorophenyl)-2-methyl-4-((3S,5R)-3,4,5-trimethylpiperazin-1-yl)benzamide] |
| 4 | 0.97 | 9.2 |  |  |  | Cc1csc(-c2cnc(-c3cc(NC(=O)c4ccc(N5C[C@@H](C)N(C)[C@@H](C)C5)cc4Cl)ccc3Cl)[nH]2)c1 [Example 136, N-(3-(5-(4-methylthiophen-2-yl)-1H-imidazol-2-yl)-4-chlorophenyl)-2-chloro-4-((3S,5R)-3,4,5-trimethylpiperazin-1-yl)benzamide] |
| 15 | 2.3 | 51 |  |  |  | C[C@@H]1CN(c2ccc(C(=O)Nc3ccc(Cl)c(-c4ncc(-c5ccc(Cl)s5)[nH]4)c3)cc2Cl)C[C@H](C)N1C [Example 137, N-(3-(5-(5-chlorothiophen-2-yl)-1H-imidazol-2-yl)-4-chlorophenyl)-3-chloro-4-((3S,5R)-3,4,5-trimethylpiperazin-1-yl)benzamide] |
| 1.6 | 0.58 | 39 |  |  |  | C[C@@H]1CN(c2ccc(C(=O)Nc3ccc(Cl)c(-c4ncc(-c5ccc(Cl)s5)[nH]4)c3)c(Cl)c2)C[C@H](C)N1C [Example 138, N-(3-(5-(5-chlorothiophen-2-yl)-1H-imidazol-2-yl)-4-chlorophenyl)-2-chloro-4-((3S,5R)-3,4,5-trimethylpiperazin-1-yl)benzamide] |
| 1.8 | 1.1 | 44 |  |  |  | Cc1cc(N2C[C@@H](C)N(C)[C@@H](C)C2)ccc1C(=O)Nc1ccc(Cl)c(-c2ncc(-c3ccsc3)[nH]2)c1 [Example 139, N-(3-(5-(thiophen-3-yl)-1H-imidazol-2-yl)-4-chlorophenyl)-2-methyl-4-((3S,5R)-3,4,5-trimethylpiperazin-1-yl)benzamide] |
| 0.2 | 0.21 | 4.8 |  |  |  | C[C@@H]1CN(c2ccc(C(=O)Nc3ccc(Cl)c(-c4ncc(-c5ccsc5)[nH]4)c3)c(Cl)c2)C[C@H](C)N1C [Example 140, N-(3-(5-(thiophen-3-yl)-1H-imidazol-2-yl)-4-chlorophenyl)-2-chloro-4-((3S,5R)-3,4,5-trimethylpiperazin-1-yl)benzamide] |
| 0.24 | 0.35 | 9.4 |  |  |  | Cc1c(C(=O)Nc2ccc(Cl)c(-c3ncc(-c4ccsc4)[nH]3)c2)ccc(N2C[C@@H](C)N(C)[C@@H](C)C2)c1F [Example 141, N-(3-(5-(thiophen-3-yl)-1H-imidazol-2-yl)-4-chlorophenyl)-2-methyl-3-fluoro-4-((3S,5R)-3,4,5-trimethylpiperazin-1-yl)benzamide] |
| 15 | 2.3 | 108 |  |  |  | Cc1cc(N2C[C@@H](C)N(C)[C@@H](C)C2)ccc1C(=O)Nc1ccc(Cl)c(-c2nc(C)c(-c3cccs3)[nH]2)c1 [Example 143, N-(3-(4-methyl-5-(thiophen-2-yl)-1H-imidazol-2-yl)-4-chlorophenyl)-2-methyl-4-((3S,5R)-3,4,5-trimethylpiperazin-1-yl)benzamide] |
| 0.82 | 0.15 | 17 |  |  |  | C[C@@H]1CN(c2ccc(C(=O)Nc3ccc(Cl)c(-c4ncc(-c5ccco5)[nH]4)c3)c(Cl)c2)C[C@H](C)N1C [Example 144, N-(3-(5-(furan-2-yl)-1H-imidazol-2-yl)-4-chlorophenyl)-2-chloro-4-((3S,5R)-3,4,5-trimethylpiperazin-1-yl)benzamide] |
| 0.93 | 0.38 | 3.3 |  |  |  | Cc1cc(N2C[C@@H](C)N(C)[C@@H](C)C2)ccc1C(=O)Nc1ccc(Cl)c(-c2ncc(-c3ccco3)[nH]2)c1 [Example 145, N-(3-(5-(furan-2-yl)-1H-imidazol-2-yl)-4-chlorophenyl)-2-methyl-4-((3S,5R)-3,4,5-trimethylpiperazin-1-yl)benzamide] |
| 0.49 | 0.39 | 25 |  |  |  | C[C@@H]1CN(c2ccc(C(=O)Nc3ccc(Cl)c(-c4ncc(-c5ccco5)[nH]4)c3)c(C(F)(F)F)c2)C[C@H](C)N1C [Example 146, N-(3-(5-(furan-2-yl)-1H-imidazol-2-yl)-4-chlorophenyl)-2-(trifluoro-methyl)-4-((3S,5R)-3,4,5-trimethylpiperazin-1-yl)benzamide] |
| 0.33 | 0.26 | 15 |  |  |  | Cc1c(C(=O)Nc2ccc(Cl)c(-c3ncc(-c4ccco4)[nH]3)c2)ccc(N2C[C@@H](C)N(C)[C@@H](C)C2)c1F [Example 148, N-(3-(5-(furan-2-yl)-1H-imidazol-2-yl)-4-chlorophenyl)-2-methyl-3-fluoro-4-((3S,5R)-3,4,5-trimethylpiperazin-1-yl)benzamide] |
| 0.27 | 0.28 | 15 |  |  |  | C[C@@H]1CN(c2cc(Cl)c(C(=O)Nc3ccc(Cl)c(-c4ncc(-c5ccco5)[nH]4)c3)cc2F)C[C@H](C)N1C [Example 149, N-(3-(5-(furan-2-yl)-1H-imidazol-2-yl)-4-chlorophenyl)-2-chloro-5-fluoro-4-((3S,5R)-3,4,5-trimethylpiperazin-1-yl)benzamide] |
